# Results reported in paper PMC3673949, “Small Molecule R1498 as a Well-Tolerated and Orally Active Kinase Inhibitor for Hepatocellular Carcinoma and Gastric Cancer Treatment via Targeting Angiogenesis and Mitosis Pathways” (PLoS ONE, 2013).
# Read-outs that look alike come from different tables or passages of the source.
# Tests used:
# Aurora kinase A = Aurora kinase A (Homo sapiens, UniProt O14965); assay: Z'-Lyte kinase activity assay; type: biochemical; conditions: mean of three independent experiments
# Chain of Aurora kinase A (O14965 whole entry): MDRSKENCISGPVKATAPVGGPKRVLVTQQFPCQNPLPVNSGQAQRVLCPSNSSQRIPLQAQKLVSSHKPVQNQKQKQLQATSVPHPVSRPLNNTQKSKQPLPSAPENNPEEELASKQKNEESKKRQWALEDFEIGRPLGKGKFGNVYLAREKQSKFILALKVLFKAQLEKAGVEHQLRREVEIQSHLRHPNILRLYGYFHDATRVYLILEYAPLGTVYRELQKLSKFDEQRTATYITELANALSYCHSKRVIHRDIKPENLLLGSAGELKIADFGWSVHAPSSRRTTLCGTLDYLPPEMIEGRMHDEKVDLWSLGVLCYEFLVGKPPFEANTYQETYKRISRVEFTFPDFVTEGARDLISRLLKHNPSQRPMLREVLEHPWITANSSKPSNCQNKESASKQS
# Method: (§1) The affinity of R1498 against 402 kinases was determined by KINOMEScan® (Ambit Biosciences, San Diego, CA) and data were presented as dissociation constant (Kd) values. The inhibition on kinase activity of Aurora kinases and VEGFR2 was further characterized by Z’-Lyte kinase activity assays under corresponding ATP concentrations.
# Aurora kinase B = Aurora kinase B (Homo sapiens, UniProt Q96GD4); assay: Z'-Lyte kinase activity assay; type: biochemical; conditions: mean of three independent experiments
# Chain of Aurora kinase B (Q96GD4 whole entry): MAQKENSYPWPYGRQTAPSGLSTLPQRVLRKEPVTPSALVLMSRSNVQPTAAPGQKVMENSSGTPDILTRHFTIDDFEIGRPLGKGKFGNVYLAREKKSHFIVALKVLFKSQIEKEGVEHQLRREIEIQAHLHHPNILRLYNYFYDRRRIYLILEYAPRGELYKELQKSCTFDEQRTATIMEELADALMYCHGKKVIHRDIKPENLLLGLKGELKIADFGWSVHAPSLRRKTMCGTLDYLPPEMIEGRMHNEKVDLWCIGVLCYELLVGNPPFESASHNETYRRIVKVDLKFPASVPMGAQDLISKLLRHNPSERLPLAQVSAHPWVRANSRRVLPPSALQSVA
# Method: as §1
# VEGFR2 = VEGFR2 (Homo sapiens, UniProt P35968); assay: Z'-Lyte kinase activity assay; type: biochemical; conditions: mean of three independent experiments
# Chain of VEGFR2 (P35968 20-1356): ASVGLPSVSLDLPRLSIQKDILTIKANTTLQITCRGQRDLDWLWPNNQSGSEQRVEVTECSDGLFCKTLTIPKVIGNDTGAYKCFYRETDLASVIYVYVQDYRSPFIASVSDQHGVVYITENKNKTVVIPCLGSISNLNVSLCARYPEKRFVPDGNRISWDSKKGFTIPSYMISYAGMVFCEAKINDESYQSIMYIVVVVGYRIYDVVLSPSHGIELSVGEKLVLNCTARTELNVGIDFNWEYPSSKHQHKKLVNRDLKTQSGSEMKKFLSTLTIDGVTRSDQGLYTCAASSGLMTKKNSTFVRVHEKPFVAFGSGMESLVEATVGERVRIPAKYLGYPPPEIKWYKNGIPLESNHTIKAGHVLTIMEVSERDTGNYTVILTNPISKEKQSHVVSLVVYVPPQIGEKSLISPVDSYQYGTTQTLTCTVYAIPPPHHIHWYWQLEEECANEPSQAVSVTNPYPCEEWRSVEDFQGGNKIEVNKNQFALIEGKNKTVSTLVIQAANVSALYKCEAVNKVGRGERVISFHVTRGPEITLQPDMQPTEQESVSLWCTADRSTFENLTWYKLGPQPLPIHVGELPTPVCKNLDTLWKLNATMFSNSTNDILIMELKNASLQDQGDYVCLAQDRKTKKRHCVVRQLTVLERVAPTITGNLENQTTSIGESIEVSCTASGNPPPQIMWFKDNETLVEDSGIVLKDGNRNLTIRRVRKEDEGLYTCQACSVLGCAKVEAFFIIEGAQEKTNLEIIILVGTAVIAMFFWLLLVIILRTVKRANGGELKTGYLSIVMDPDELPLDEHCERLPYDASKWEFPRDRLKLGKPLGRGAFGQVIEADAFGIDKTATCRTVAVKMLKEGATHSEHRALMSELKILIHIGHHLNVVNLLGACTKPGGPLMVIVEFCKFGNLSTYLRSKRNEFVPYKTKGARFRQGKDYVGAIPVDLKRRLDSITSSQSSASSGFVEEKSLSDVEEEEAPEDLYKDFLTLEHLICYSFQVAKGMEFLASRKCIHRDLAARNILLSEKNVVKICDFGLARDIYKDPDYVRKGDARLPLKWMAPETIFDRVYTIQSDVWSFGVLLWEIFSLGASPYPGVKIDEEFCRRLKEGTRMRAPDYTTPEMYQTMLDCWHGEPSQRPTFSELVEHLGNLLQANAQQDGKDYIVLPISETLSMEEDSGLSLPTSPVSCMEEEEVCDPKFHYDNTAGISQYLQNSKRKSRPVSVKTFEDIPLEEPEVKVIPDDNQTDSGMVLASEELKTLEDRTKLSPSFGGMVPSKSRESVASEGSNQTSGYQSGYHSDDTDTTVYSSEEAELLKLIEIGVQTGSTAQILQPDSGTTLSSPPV
# Method: as §1
# [1] = tested on: phospho-Aurora kinase A (T288); assay: Immunofluorescence / western blot of Aurora A activity marker in SGC-7901; type: cell-based, human
# Method: Cell lysate was prepared in RIPA buffer and quantified by the bicinchoninic acid (BCA) method (Pierce, Rockford, IL). Thirty micrograms of protein per sample was loaded onto a 4∼12% NuPAGE® Novex SDS gel (Invitrogen). The protein was transferred by an iBlot® dry blotting device (Invitrogen) onto nitrocellulose membranes. After blocking nonspecific binding with TBS/Tween20 (0.1%) (TBS/T) containing 5% non-fat milk for 1 h at room temperature, the membrane was incubated in phospho-Aurora A (Thr288) (C39D8) rabbit monoclonal antibody (Cell Signaling Technology, CST #3079, Beverly, MA) or phospho-Histone H3 (Ser10) rabbit polyclonal antibody (CST#9701) (1∶1000 in TBS/T containing 3% bovine serum albumin (BSA), and gently shaken at 4°C overnight. The membrane was washed with TBS/T three times to remove the unbound antibody, then incubated with the secondary antibody (HRP-conjugated goat anti-mouse IgG or goat anti-rabbit IgG, 1∶10000, KangChen Biotech, Shanghai, China) for 1 h at room temperature, respectively. Protein bands were visualized with an enhanced chemiluminescence (ECL) kit (Pierce, Rockford, IL). […]
# HUVEC (FBS stimulated) = assay: HUVEC proliferation in 10% FBS; type: cell-based; conditions: Homo sapiens, 72 h
# Method: Each cell line was seeded in a 96-well tissue culture plate (Corning, NY) at a predetermined density in 180 µL complete medium, attached overnight and treated by compound for another 72 h. Then the medium was discarded and replaced with 10% CCK-8 (Dojindo, Kumamoto, Japan) in complete medium, then incubated the plates for another 2 h. The OD450 was measured with SpectraMAX 190 spectrophotometer (MDS, Sunnyvale, CA). A background absorbance of ODblank was subtracted from all wells.
# In VEGF-induced HUVEC proliferation assay, the HUVECs suspended in 170 µL EGM-2 with 0.5% FBS were seeded and incubated overnight. After the cells attached, 10 µL 1 µg/ml recombinant human VEGF 165 (R&D systems, Minneapolis, MN) was added to each well together with 20 µl compound solutions prepared in EGM-2 with 0.5% FBS. The CCK-8 assay as above was used for determination of cell viability.
# [2] = Plasma and tumor exposure at steady state in xenograft-bearing mice; type: in vivo, nude mice; design: Tumor AUC @ SS: unit not given here; conditions: for AUC: nude, mouse, po, read-out: Plasma AUC @ SS
# Excerpt: Supplementary file pone.0065264.s004.doc: Table S3 ED60/90 estimation from the R1498 exposure at steady state in tumors. The exposure in plasma and tumor at steady state were plot against tumor growth inhibiton rate to estimate the ED60/E90 doses. (DOC) Click here for additional data file.
# [3] = Single dose pharmacokinetic (SDPK) study; type: in vivo; conditions: for Oral BA: micronized API suspension; for clearance / Vd / half-life: plasma; for clearance / Vd: iv, 5 mg/kg, single dose; for Vd: read-out: Vdss; for half-life: iv 5 mg/kg
# Method: Blood samples were collected by retro-orbital puncture at pre-dose and 0.033, 0.083, 0.25,0.5, 1, 2, 4, 6, 8, and 24 hours post-dose. The plasma samples and the dose formulation were stored at −20°C until bioanalysis. The data acquisition and control system were created using Analyst 1.4 software from ABI Inc. The concentrations in plasma below the limit of quantitation (LOQ = 1 ng/mL) were designated as zero. […] For rat, dog and monkey SDPK, the blood samples were collected from jugular vein puncture.
compound,measurement,setting,value
COc1ccc2c(c1)C(c1ccccc1Cl)=Nc1c(n[nH]c1C)N2 [R1498],IC50,Aurora kinase A,67 ± 4 nM
same,IC50,Aurora kinase B,167 ± 13 nM
same,IC50,VEGFR2,25 ± 6 nM
same,Aurora A T288 green foci in mitotic cells (immunofluorescence),"[1]; SGC-7901, 5 µM, 24 h",became weaker or disappeared
same,phosphorylation of phospho-Aurora kinase A (T288) (western blot),"[1]; SGC-7901 synchronized with nocodazole, various concentrations, acute treatment",decreased in a concentration-dependent manner
same,IC50,HUVEC (FBS stimulated),2060 nM
same,Tumor AUC @ SS,"[2]; BEL-7402, 3.125 mpk, bid, PO",2219
same,Tumor AUC @ SS,"[2]; BEL-7402, 6.25 mpk, bid, PO",6713
same,Tumor AUC @ SS,"[2]; BEL-7402, 12.5 mpk, bid, PO",23886
same,Tumor AUC @ SS,"[2]; BEL-7404, 3.125 mpk, bid, PO",9251
same,Tumor AUC @ SS,"[2]; BEL-7404, 6.25 mpk, bid, PO",17558
same,Tumor AUC @ SS,"[2]; BEL-7404, 12.5 mpk, bid, PO",37142
same,Tumor AUC @ SS,"[2]; BEL-7404, 12.5 mpk, single dose, PO (PK arm)",30996
same,Tumor AUC @ SS,"[2]; BGC-823 (model cell empty, from line above), 25 mpk, single dose, PO (PK arm)",49597
same,Tumor AUC @ SS,"[2]; BGC-823, 6.25 mpk, bid, PO",9906
same,Tumor AUC @ SS,"[2]; BGC-823, 12.5 mpk, bid, PO",39971
same,Tumor AUC @ SS,"[2]; BGC-823, 25 mpk, bid, PO",70897
same,Tumor AUC @ SS,"[2]; SGC-7901 (model cell empty, from line above), 25 mpk, single dose, PO (PK arm)",147592
same,Tumor AUC @ SS,"[2]; SGC-7901, 6.25 mpk, bid, PO",25249
same,Tumor AUC @ SS,"[2]; SGC-7901, 12.5 mpk, bid, PO",48130
same,Tumor AUC @ SS,"[2]; SGC-7901, 25 mpk, bid, PO",78767
same,AUC,"[2]; in vivo, 12.5 mg/kg, BEL-7402, 12.5 mpk, bid, PO",26100 ng·h/mL
same,AUC,"[2]; in vivo, 12.5 mg/kg, BEL-7404, 12.5 mpk, bid, PO",21600 ng·h/mL
same,AUC,"[2]; in vivo, 12.5 mg/kg, BEL-7404, 12.5 mpk, single dose, PO (PK arm)",15200 ng·h/mL
same,AUC,"[2]; in vivo, 12.5 mg/kg, BGC-823, 12.5 mpk, bid, PO",31100 ng·h/mL
same,AUC,"[2]; in vivo, 12.5 mg/kg, SGC-7901, 12.5 mpk, bid, PO",26900 ng·h/mL
same,AUC,"[2]; plasma, 3.125 mg/kg, BEL-7402, 3.125 mpk, bid, PO",5380 ng·h/mL
same,AUC,"[2]; plasma, 3.125 mg/kg, BEL-7404, 3.125 mpk, bid, PO",3560 ng·h/mL
same,AUC,"[2]; plasma, 6.25 mg/kg, BEL-7402, 6.25 mpk, bid, PO",12600 ng·h/mL
same,AUC,"[2]; plasma, 6.25 mg/kg, BEL-7404, 6.25 mpk, bid, PO",6560 ng·h/mL
same,AUC,"[2]; plasma, 6.25 mg/kg, BGC-823, 6.25 mpk, bid, PO",10800 ng·h/mL
same,AUC,"[2]; plasma, 6.25 mg/kg, SGC-7901, 6.25 mpk, bid, PO",11400 ng·h/mL
same,AUC,"[2]; plasma, 25 mg/kg, BGC-823 (model cell empty, from line above), 25 mpk, single dose, PO (PK arm)",73300 ng·h/mL
same,AUC,"[2]; plasma, 25 mg/kg, BGC-823, 25 mpk, bid, PO",43300 ng·h/mL
same,AUC,"[2]; plasma, 25 mg/kg, SGC-7901 (model cell empty, from line above), 25 mpk, single dose, PO (PK arm)",70100 ng·h/mL
same,AUC,"[2]; plasma, 25 mg/kg, SGC-7901, 25 mpk, bid, PO",47900 ng·h/mL
same,Oral BA,"[3]; Dog, 50-100 mg/kg",32-45 (50-100 mg/kg) %
same,Oral BA,"[3]; Monkey, 12.5 mg/kg",4 (12.5 mg/kg) %
same,Oral BA,"[3]; Rat, 25-400 mg/kg",9-44 (25-400 mg/kg) %
same,clearance,[3]; Dog,1.9 mL/min/kg
same,Vd,[3]; Dog,2.7 L/kg
same,clearance,[3]; Monkey,25.3 mL/min/kg
same,Vd,[3]; Monkey,2.1 L/kg
same,clearance,[3]; Rat,5.6 mL/min/kg
same,Vd,[3]; Rat,1.6 L/kg
same,half-life,[3]; Dog,16.8 h
same,half-life,[3]; Monkey,1.5 h
same,half-life,[3]; Rat,3.2 h
